In US8492589B2, “Alkynyl phenyl derivative compounds for treating ophthalmic diseases and disorders” (Acucela Inc., priority 2007, dated 2013):

Target: T1, visual cycle isomerase (Bovine RPE microsome membranes) (Bos taurus, UniProt Q28175)
T1 construct: Bovine Retinal Pigment Epithelium (RPE) microsome membranes were the source of a visual cycle isomerase; from tissue; host or cells: bovine retinal pigment epithelium microsome membranes
T1 sequence (Q28175 2-533 limits assumed): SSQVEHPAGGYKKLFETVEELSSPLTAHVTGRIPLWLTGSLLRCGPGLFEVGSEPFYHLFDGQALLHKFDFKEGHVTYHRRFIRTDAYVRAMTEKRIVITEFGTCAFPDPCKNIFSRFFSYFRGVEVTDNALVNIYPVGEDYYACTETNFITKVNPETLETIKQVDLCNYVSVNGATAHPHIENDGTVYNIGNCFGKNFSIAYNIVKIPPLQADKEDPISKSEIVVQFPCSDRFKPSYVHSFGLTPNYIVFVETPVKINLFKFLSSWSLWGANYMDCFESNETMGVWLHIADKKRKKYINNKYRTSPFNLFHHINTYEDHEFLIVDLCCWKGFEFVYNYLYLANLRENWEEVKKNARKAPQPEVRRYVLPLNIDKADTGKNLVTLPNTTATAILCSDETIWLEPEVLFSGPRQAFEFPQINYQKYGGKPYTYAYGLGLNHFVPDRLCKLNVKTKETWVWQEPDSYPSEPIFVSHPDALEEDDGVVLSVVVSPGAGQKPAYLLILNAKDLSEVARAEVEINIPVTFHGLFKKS
Test: In vitro isomerase inhibition assay, bovine RPE microsome membranes
Type: biochemical
Conditions: bovine RPE microsomes; 11-cis retinol formation
Protocol: The capability of alkynyl phenyl-linked amine derivative compounds to inhibit the activity of a visual cycle isomerase was determined.
Bovine Retinal Pigment Epithelium (RPE) microsome membranes were the source of a visual cycle isomerase.
Crude RPE microsome extracts were thawed in a 37° C. water bath, and then immediately placed on ice. 50 ml crude RPE microsomes were placed into a 50 ml Teflon-glass homogenizer (Fisher Scientific, catalog no. 0841416M) on ice, powered by a hand-held DeWalt drill, and homogenized ten times up and down on ice under maximum speed. This process was repeated until the crude RPE microsome solution was homogenized. The homogenate was then subjected to centrifugation (50.2 Ti rotor (Beckman, Fullerton, Calif.), 13,000 RPM; 15360 Rcf) for 15 minutes at 4° C. The supernatant was collected and subjected to centrifugation at 42,000 RPM (160,000 Rcf; 50.2 Ti rotor) for 1 hour at 4° C. The supernatant was removed, and the pellets were suspended in 12 ml (final volume) cold 10 mM MOPS buffer, pH 7.0. The resuspended RPE membranes in 5 ml aliquots were homogenized in a glass-to-glass homogenizer (Fisher Scientific, catalog no. K885500-0021) to high homogeneity. Protein concentration was quantified using the BCA protein assay according to the manufacturer's protocol (Pierce, Rockford, Ill.). The homogenized RPE preparations were stored at −80° C.
Recombinant human apo cellular retinaldehyde-binding protein (CRALBP) was cloned and expressed according to standard methods in the molecular biology art (see Crabb et al., Protein Science 7:746-57 (1998); Crabb et al., J. Biol. Chem. 263:18688-92 (1988)). Briefly, total RNA was prepared from confluent ARPE19 cells (American Type Culture Collection, Manassas, Va.), cDNA was synthesized using an oligo(dT)12-18 primer, and then DNA encoding CRALBP was amplified by two sequential polymerase chain reactions (see Crabb et al., J. Biol. Chem. 263:18688-92 (1988); Intres, et al., J. Biol. Chem. 269:25411-18 (1994); GenBank Accession No. L34219.1). The PCR product was sub-cloned into pTrcHis2-TOPO TA vector according to the manufacturer's protocol (Invitrogen Inc., Carlsbad, Calif.; catalog no. K4400-01), and then the sequence was confirmed according to standard nucleotide sequencing techniques. Recombinant 6×His-tagged human CRALBP was expressed in One Shot TOP 10 chemically competent E. coli cells (Invitrogen), and the recombinant polypeptide was isolated from E. coli cell lysates by nickel affinity chromatography using nickel (Ni) Sepharose XK16-20 columns for HPLC (Amersham Bioscience, Pittsburgh, Pa.; catalog no. 17-5268-02). The purified 6×His-tagged human CRALBP was dialyzed against 10 mM bis-tris-Propane (BTP) and analyzed by SDS-PAGE. The molecular weight of the recombinant human CRALBP was approximately 39 kDal.
Alkkynyl phenyl-linked amine derivative compounds and control compounds were reconstituted in ethanol to 0.1 M. Ten-fold serial dilutions (10^−2, 10^−3, 10^−4, 10^−5, 10^−6 M) in ethanol of each compound were prepared for analysis in the isomerase assay.
The isomerase assay was performed in 10 mM bis-tris-propane (BTP) buffer, pH 7.5, 0.5% BSA (diluted in BTP buffer), 1 mM sodium pyrophosphate, 20 μM all-trans retinol (in ethanol), and 6 μM apo-CRALBP. The test compounds (2 μl) (final […] dilution of serial dilution stocks) were added to the above reaction mixture to which RPE microsomes were added. The same volume of ethanol was added to the control reaction (absence of test compound). Bovine RPE microsomes (9 μl) (see above) were then added, and the mixtures transferred to 37° C. to initiate the reaction (total volume=150 μl). The reactions were stopped after 30 minutes by adding methanol (300 μl). Heptane was added (300 μl) and mixed into the reaction mixture by pipetting. Retinoid was extracted by agitating the reaction mixtures, followed by centrifugation in a microcentrifuge. […]

Row | SMILES | IC50
1 | NCCCc1cccc(C#CCCCCO)c1 [Example 68, 6-(3-(3-Aminopropyl)phenyl)hex-5-yn-1-ol] | ≤ 1 µM
2 | N#Cc1cccc(C#Cc2cccc(CCCN)c2)c1 [Example 90, 3-((3-(3-Aminopropyl)phenyl)ethynyl)benzonitrile] | ≤ 10 µM
3 | CC(C)(O)C#Cc1cccc(OCCN)c1 [Example 30, 4-(3-(2-Aminoethoxy)phenyl)-2-methylbut-3-yn-2-ol] | ≤ 1 µM
4 | CC(C)(C)c1cc(C#Cc2cccc(CCCN)c2)cc(C(C)(C)C)c1 [Example 93, 3-(3-((3,5-Di-tert-butylphenyl)ethynyl)phenyl)propan-1-amine] | ≤ 1000 µM
5 | CC(C)(C)C#Cc1cccc(CCCN)c1 [Example 40, 3-(3-(3,3-Dimethylbut-1-Ynyl)Phenyl)Propan-1-Amine] | ≤ 10 µM
6 | NCCC(O)c1cccc(C#CCc2ccccc2)c1 (stereo not shown) [Example 49, 3-Amino-1-(3-(3-phenylprop-1-ynyl)phenyl)propan-1-ol] | ≤ 1 µM
7 | CC1(C)CCCC(C)(C)C1(O)C#Cc1cccc(CCCN)c1 [Example 13, 1-((3-(3-Aminopropyl)phenyl)ethynyl)-2,2,6,6-tetramethylcyclohexanol] | ≤ 10 µM
8 | COCCCCC#Cc1cccc(CCCN)c1 [Example 67, 3-(3-(6-Methoxyhex-1-ynyl)phenyl)propan-1-amine] | ≤ 1 µM
9 | NCCOc1cccc(C#CCc2ccccc2)c1 [Example 75, 2-(3-(3-phenylprop-1-ynyl)phenoxy)ethanamine] | ≤ 1 µM
10 | CC(C)CC(O)(C#Cc1cccc(CCCN)c1)CC(C)C [Example 33, 4-((3-(3-Aminopropyl)phenyl)ethynyl)-2,6-dimethylheptan-4-ol] | ≤ 10 µM
11 | CC(C)(C)C(O)(C#Cc1cccc(CCCN)c1)C(C)(C)C [Example 12, 1-(3-(3-Aminopropyl)phenyl)-3-tert-butyl-4,4-dimethylpent-1-yn-3-ol] | ≤ 10 µM
12 | CCCCCC#Cc1cccc(OCCN)c1 [Example 77, 2-(3-(hept-1-ynyl)phenoxy)ethanamine] | ≤ 1 µM
13 | Cc1cccc(C#Cc2cccc(CCCN)c2)c1 [Example 87, 3-(3-(m-Tolylethynyl)phenyl)propan-1-amine] | ≤ 100 µM
14 | NCCCc1cccc(C#Cc2ccccc2O)c1 [Example 89, 2-((3-(3-Aminopropyl)phenyl)ethynyl)phenol] | ≤ 10 µM
15 | CCCC(O)(C#Cc1cccc(CCN)c1)CCC [Example 141, 4-((3-(2-Aminoethyl)phenyl)ethynyl)heptan-4-ol] | ≤ 1 µM
16 | CCCCC[C@H](O)C#Cc1cccc(CCCN)c1 [Example 14, (S)-1-(3-(3-Aminopropyl)phenyl)oct-1-yn-3-ol] | ≤ 10 µM
17 | NCCOc1cccc(C#Cc2ccncc2)c1 [Example 97, 2-(3-(Pyridin-4-ylethynyl)phenoxy)ethanamine] | ≤ 10 µM
18 | NCCCc1cccc(C#CCC2CCCC2)c1 [Example 39, 3-(3-(3-Cyclopentylprop-1-ynyl)phenyl)propan-1-amine] | ≤ 1 µM
19 | COCC#Cc1cccc(CCCN)c1 [Example 9, 3-(3-(3-Methoxyprop-1-ynyl)phenyl)propan-1-amine] | ≤ 10 µM
20 | NCCCc1cccc(C#Cc2cccc(C(F)(F)F)c2)c1 [Example 92, 3-(3-((3-(Trifluoromethyl)Phenyl)Ethynyl)Phenyl)Propan-1-Amine] | ≤ 100 µM

Row | SMILES | IC50
21 | CCCCC(O)(C#Cc1cccc(OCCN)c1)CCCC [Example 29, 5-((3-(2-Aminoethoxy)phenyl)ethynyl)nonan-5-ol] | ≤ 1 µM
22 | NCCCc1cccc(C#CCc2ccccc2)c1 [Example 42, 3-(3-(3-Phenylprop-1-ynyl)phenyl)propan-1-amine] | ≤ 1 µM
23 | CCCCC(O)(C#Cc1cccc(CCCN)c1)CCCC [Example 3, 5-((3-(3-Aminopropyl)phenyl)ethynyl)nonan-5-ol] | ≤ 1 µM
24 | CCCCCC#Cc1cccc(C(O)CCN)c1 (stereo not shown) [Example 53, 3-Amino-1-(3-(hept-1-ynyl)phenyl)propan-1-ol] | ≤ 1 µM
25 | CC(O)CC#Cc1cccc(CCCN)c1 (stereo not shown) [Example 35, 5-(3-(3-Aminopropyl)phenyl)pent-4-yn-2-ol] | ≤ 10 µM
26 | NCCC(O)c1cccc(C#CCC2CCCC2)c1 (stereo not shown) [Example 48, 3-Amino-1-(3-(3-cyclopentylprop-1-ynyl)phenyl)propan-1-ol] | ≤ 1 µM
27 | NCCOc1cccc(C#CC2(O)CCOCC2)c1 [Example 56, 4-((3-(2-Aminoethoxy)phenyl)ethynyl)tetrahydro-2H-pyran-4-ol] | ≤ 10 µM
28 | Cc1ccccc1C#Cc1cccc(CCCN)c1 [Example 83, 3-(3-(o-Tolylethynyl)phenyl)propan-1-amine] | ≤ 10 µM
29 | NCCCc1cccc(C#Cc2cccs2)c1 [Example 65, 3-(3-(Thiophen-2-ylethynyl)phenyl)propan-1-amine] | ≤ 10 µM
30 | NCCOc1cccc(C#Cc2ccsc2)c1 [Example 96, 2-(3-(Thiophen-3-ylethynyl)phenoxy)ethanamine] | ≤ 10 µM
31 | NCCOc1cccc(C#CCCc2ccccc2)c1 [Example 86, 2-(3-(4-Phenylbut-1-ynyl)phenoxy)ethanamine] | ≤ 1 µM
32 | NCCCc1cccc(C#CCCO)c1 [Example 34, 4-(3-(3-Aminopropyl)Phenyl)But-3-Yn-1-ol] | ≤ 100 µM
33 | CCCC#Cc1cccc(CCCN)c1 [Example 43, 3-(3-(Pent-1-ynyl)phenyl)propan-1-amine] | ≤ 1 µM
34 | CC(C)CC#Cc1cccc(OCCN)c1 [Example 73, 2-(3-(4-Methylpent-1-ynyl)phenoxy)ethanamine] | ≤ 1 µM
35 | CCCC(C)(O)C#Cc1cccc(CCCN)c1 (stereo not shown) [Example 5, 1-(3-(3-Aminopropyl)phenyl)-3-methylhex-1-yn-3-ol] | ≤ 1 µM
36 | NCCCc1cccc(C#C[C@H](O)c2ccccc2)c1 [Example 16, (R)-3-(3-(3-Aminopropyl)phenyl)-1-phenylprop-2-ynol] | ≤ 1 µM
37 | CSc1ccc(C#Cc2cccc(CCCN)c2)cc1 [Example 94, 3-(3-((4-(Methylthio)phenyl)ethynyl)phenyl)propan-1-amine] | ≤ 100 µM
38 | NCCCc1cccc(C#Cc2cccc(-c3ccccc3)c2)c1 [Example 46, 3-(3-(Biphenyl-3-ylethynyl)phenyl)propan-1-amine] | ≤ 100 µM
39 | COc1ccccc1C#Cc1cccc(OCCN)c1 [Example 91, 2-(3-((2-Methoxyphenyl)Ethynyl)Phenoxy)Ethanamine] | ≤ 1 µM
40 | CC(C)C(C)(O)C#Cc1cccc(CCCN)c1 (stereo not shown) [Example 21, 1-(3-(3-Aminopropyl)phenyl)-3,4-dimethylpent-1-yn-3-ol] | ≤ 1 µM
